{"source": "paper PMC8327158", "about": "“PEGylated AdipoRon derivatives improve glucose and lipid metabolism under insulinopenic and high-fat diet conditions” (Journal of Lipid Research, 2021)", "key": {"[1]": {"set-up": "method as in PMID 24172895", "details": "oral administration at 50 mg kg−1 body weight; cited from earlier work"}, "INS-1 cells": {"tested_on": "INS-1 cells", "experiment": "Ceramide and dihydroceramide levels in PA-stressed INS-1 cells by mass spectrometry", "format": "cell-based, rat", "details": "24 h, PA 0.25 mM; for Ceramides 14:0 / Ceramides 16:0 / Ceramides 18:0 / Ceramides 18:1 / Ceramides 20:0 / Ceramides 22:0 / Ceramides 24:0 / Ceramides 24:1 / Ceramides 26:0 / Ceramides 26:1 / Dihydroceramides 16:0 / Dihydroceramides 18:0 / Dihydroceramides 20:0 / Dihydroceramides 22:0 / Dihydroceramides 24:0 / Dihydroceramides 24:1: INS1 cells, three replicates", "procedure": "INS-1 cells were seeded at 2 × 10^6/well in a 6-well plate. Cells were treated as follows for 24 h: (i) Control: No FBS or PA (0.25 mM); (ii) Positive Control: 10% FBS + PA (0.25 mM); (iii) Adiponectin (10 nM) + PA (0.25 mM); (iv) AdipoRonPEG6HTL (10 nM) + PA (0.25 mM); (v) AdipoRonPEG6HTL (1 μM) + PA (0.25 mM); (vi) AdipoRonPEG5 (1 μM) + PA (0.25 mM); (vii) AdipoRonPEG5 (20 μM) + PA (0.25 mM). Thereafter, treatment was aspirated, and the cells were washed with cold PBS x 2, scraped off with 1–2 ml PBS, and spun down at 2,500 rpm for 5 min. The supernatant was aspirated, and the pallet was stored at […] for sphingolipid analysis.\nFlash-frozen tissue samples (~40 mg) in a borosilicate glass tube were quenched with 2.0 ml of organic extraction solvent (isopropanol: ethyl acetate, 15:85; v:v) and homogenized with a mechanical tissue disruptor. Immediately afterward, 20 μl of organic internal standard solution was added (Ceramide/Sphingoid Internal Standard Mixture II diluted 1:10 in ethanol). The mixture was vortexed for 20 s and sonicated in ultrasonic bath for 40 min at 40°C. The organic extract was allowed to reach room temperature, and 1.5 ml of HPLC water was added and a two-phase liquid-liquid extraction was performed. The upper phase was transferred to a new clean tube, and the lower aqueous phase containing the protein pellet was re-extracted with additional 2.0 ml of organic extraction solvent. The organic phases were combined and dried under nitrogen stream at 40°C. Dried extracts were stored at –80°C until analysis. For analysis of ceramides and sphingoid base species, the dried residues were reconstituted in 200 μl of methanol. Sphingomyelins required a sample dilution of 1:50 in methanol prior to analysis. Serum sphingolipids were extracted using a similar methodology requiring 25 μl of serum.\nIn total, 5 μl of reconstituted samples was injected into an LC/MS/MS system for the analysis of ceramides and sphingoid bases, and 1 μl injection was required for the analysis of sphingomyelins. The system consisted of a Shimadzu LCMS-8050 triple-quadrupole mass spectrometer with the dual ion source operating in electrospray positive ionization mode. The mass spectrometer is coupled to a Shimadzu Nexera X2 UHPLC system equipped with three solvent delivery modules LC-30AD, three degassing units DGU-20A5R, an autosampler SIL-30ACMP, and a column oven CTO-20AC operating at 40°C (Shimadzu Scientific Instruments, Columbia, MD). Six sphingoid bases (d18:1 sphingosine, d18:1 sphingosine-1-phosphate, d18:1 deoxysphingosine, d18:0 sphinganine, d18:0 sphinganine-1-phosphate, d18:0 deoxysphinganine) and […] ceramide species and their metabolites (C16:0, C16:0 dihydroceramide, C16:0 glucosylceramide, C16:0 lactosylceramide, C16:0 sphingomyelin, C18:0, C18:0 dihydroceramide, C18:0 glucosylceramide, C18:0 sphingomyelin, C18:1, C20:0, C22:0, C22:0 glucosylceramide, C24:0, C24:0 dihydroceramide, C24:0 lactosylceramide, C24:0 sphingomyelin, C24:1, C24:1 dihydroceramide, C24:1 glucosylceramide, C24:1 sphingomyelin). Quantitative analysis of sphingolipids was achieved using selective reaction monitoring scan mode. Lipid separation was achieved by reverse phase LC on a 2.1 (i.d.) × 150 mm Ascentis Express C8, 2.7 micron (Supelco, Bellefonte, PA) column under gradient elution, using three different mobile phases: eluent A consisting of methanol/water/formic acid, 600/400/0.8, v/v/v with 5 mM ammonium formate, eluent B consisting of methanol/formic acid, 1,000/0.8, v/v with 5 mM ammonium formate, and eluent C consisting of CH3OH/CH2Cl2 350/650. The concentration of each metabolite was determined according to calibration curves using the peak-area ratio of analyte versus corresponding internal standard. Calibration curves were generated using serial dilutions of each target analyte."}}, "note": "Values joined by “and” are separate entries in the source; they are usually repeats but may differ in a detail not shown here. Equal values may be shown once."}
{"compound": "O=C(COc1ccc(C(=O)c2ccccc2)cc1)NC1CCN(Cc2ccccc2)CC1", "note": "[AdipoRon]", "values": [{"measurement": "maximal plasma concentration", "setting": "[1]", "value": 11.8, "unit": "µM"}]}
{"compound": "O=C(COc1ccc(C(=O)c2ccccc2)cc1)NC1CCN(Cc2ccc(OCCOCCOCCOCCOCCO)cc2)CC1", "note": "[AdipoRonPEG5]", "values": [{"measurement": "C22:0 and C24:0 ceramides", "setting": "INS-1 cells; 1 μM", "value": "significantly reduced"}, {"measurement": "overall dihydroceramide and ceramides levels", "setting": "INS-1 cells", "value": "markedly lowered"}, {"measurement": "Ceramides 14:0", "setting": "INS-1 cells; 1 μM", "value": "11.37 pg/mg and 8.34 pg/mg and 8.44 pg/mg"}, {"measurement": "Ceramides 16:0", "setting": "INS-1 cells; 1 μM", "value": "132.31 pg/mg and 60.25 pg/mg and 97.74 pg/mg"}, {"measurement": "Ceramides 18:0", "setting": "INS-1 cells; 1 μM", "value": "285.84 pg/mg and 108.83 pg/mg and 172.70 pg/mg"}, {"measurement": "Ceramides 18:1", "setting": "INS-1 cells; 1 μM", "value": "2.60 pg/mg and 1.60 pg/mg and 2.34 pg/mg"}, {"measurement": "Ceramides 20:0", "setting": "INS-1 cells; 1 μM", "value": "81.47 pg/mg and 94.91 pg/mg and 71.51 pg/mg"}, {"measurement": "Ceramides 22:0", "setting": "INS-1 cells; 1 μM", "value": "502.13 pg/mg and 501.01 pg/mg and 352.24 pg/mg"}, {"measurement": "Ceramides 24:0", "setting": "INS-1 cells; 1 μM", "value": "985.21 pg/mg and 942.22 pg/mg and 715.38 pg/mg"}, {"measurement": "Ceramides 24:1", "setting": "INS-1 cells; 1 μM", "value": "415.25 pg/mg and 405.60 pg/mg and 306.31 pg/mg"}, {"measurement": "Ceramides 26:0", "setting": "INS-1 cells; 1 μM", "value": "13.63 pg/mg and 11.39 pg/mg and 10.09 pg/mg"}, {"measurement": "Ceramides 26:1", "setting": "INS-1 cells; 1 μM", "value": "4.83 pg/mg and 4.31 pg/mg and 3.39 pg/mg"}, {"measurement": "Dihydroceramides 16:0", "setting": "INS-1 cells; 1 μM", "value": "20.35 pg/mg and 15.35 pg/mg and 22.55 pg/mg"}, {"measurement": "Dihydroceramides 18:0", "setting": "INS-1 cells; 1 μM", "value": "114.43 pg/mg and 74.94 pg/mg and 73.63 pg/mg"}, {"measurement": "Dihydroceramides 20:0", "setting": "INS-1 cells; 1 μM", "value": "37.94 pg/mg and 40.41 pg/mg and 33.11 pg/mg"}, {"measurement": "Dihydroceramides 22:0", "setting": "INS-1 cells; 1 μM", "value": "124.23 pg/mg and 124.34 pg/mg and 96.61 pg/mg"}, {"measurement": "Dihydroceramides 24:0", "setting": "INS-1 cells; 1 μM", "value": "149.67 pg/mg and 168.38 pg/mg and 120.04 pg/mg"}, {"measurement": "Dihydroceramides 24:1", "setting": "INS-1 cells; 1 μM", "value": "47.95 pg/mg and 51.21 pg/mg and 34.41 pg/mg"}, {"measurement": "Ceramides 14:0", "setting": "INS-1 cells; 20 μM", "value": "13.47 pg/mg and 7.61 pg/mg and 10.59 pg/mg"}, {"measurement": "Ceramides 16:0", "setting": "INS-1 cells; 20 μM", "value": "264.29 pg/mg and 93.09 pg/mg and 72.49 pg/mg"}, {"measurement": "Ceramides 18:0", "setting": "INS-1 cells; 20 μM", "value": "442.08 pg/mg and 170.74 pg/mg and 152.01 pg/mg"}, {"measurement": "Ceramides 18:1", "setting": "INS-1 cells; 20 μM", "value": "3.76 pg/mg and 2.21 pg/mg and 1.71 pg/mg"}, {"measurement": "Ceramides 20:0", "setting": "INS-1 cells; 20 μM", "value": "86.19 pg/mg and 75.99 pg/mg and 78.87 pg/mg"}, {"measurement": "Ceramides 22:0", "setting": "INS-1 cells; 20 μM", "value": "345.37 pg/mg and 441.95 pg/mg and 372.15 pg/mg"}, {"measurement": "Ceramides 24:0", "setting": "INS-1 cells; 20 μM", "value": "827.24 pg/mg and 951.19 pg/mg and 835.47 pg/mg"}, {"measurement": "Ceramides 24:1", "setting": "INS-1 cells; 20 μM", "value": "377.12 pg/mg and 400.62 pg/mg and 388.65 pg/mg"}, {"measurement": "Ceramides 26:0", "setting": "INS-1 cells; 20 μM", "value": "9.40 pg/mg and 10.66 pg/mg and 9.87 pg/mg"}, {"measurement": "Ceramides 26:1", "setting": "INS-1 cells; 20 μM", "value": "3.59 pg/mg and 4.43 pg/mg and 3.78 pg/mg"}, {"measurement": "Dihydroceramides 16:0", "setting": "INS-1 cells; 20 μM", "value": "24.81 pg/mg and 12.98 pg/mg and 10.56 pg/mg"}, {"measurement": "Dihydroceramides 18:0", "setting": "INS-1 cells; 20 μM", "value": "94.22 pg/mg and 32.83 pg/mg and 48.23 pg/mg"}, {"measurement": "Dihydroceramides 20:0", "setting": "INS-1 cells; 20 μM", "value": "22.59 pg/mg and 15.72 pg/mg and 18.47 pg/mg"}, {"measurement": "Dihydroceramides 22:0", "setting": "INS-1 cells; 20 μM", "value": "48.91 pg/mg and 46.89 pg/mg and 48.41 pg/mg"}, {"measurement": "Dihydroceramides 24:0", "setting": "INS-1 cells; 20 μM", "value": "58.93 pg/mg and 62.29 pg/mg and 62.49 pg/mg"}, {"measurement": "Dihydroceramides 24:1", "setting": "INS-1 cells; 20 μM", "value": "21.44 pg/mg and 23.79 pg/mg and 23.03 pg/mg"}]}
